Experimental data as given in patent publication US8809001B2, “High throughput assays for inhibitors and activators of PAQR receptors” (University of Florida Research Foundation, Inc., priority 2007, dated 2014).
pEC50, pKd: −log10 of the molar value. Values joined by “and” are separate entries in the source; they are usually repeats but may differ in a detail not shown here. Equal values may be shown once.

Columns and labels:
[1] = target: T1, mPRα (Homo sapiens, UniProt Q86WK9); assay: cell-based
T1 construct: Full length and truncated mPRγ and mPRα were expressed in wild type cells grown in 2% galactose from the pGREG536 vector; expressed in transfected cells; host or cells: Saccharomyces cerevisiae (BY4742 wild type; also gpa mutants), GAL1-driven plasmids (TPI1 promoter in pJK90)
T1 sequence (Q86WK9 1-346): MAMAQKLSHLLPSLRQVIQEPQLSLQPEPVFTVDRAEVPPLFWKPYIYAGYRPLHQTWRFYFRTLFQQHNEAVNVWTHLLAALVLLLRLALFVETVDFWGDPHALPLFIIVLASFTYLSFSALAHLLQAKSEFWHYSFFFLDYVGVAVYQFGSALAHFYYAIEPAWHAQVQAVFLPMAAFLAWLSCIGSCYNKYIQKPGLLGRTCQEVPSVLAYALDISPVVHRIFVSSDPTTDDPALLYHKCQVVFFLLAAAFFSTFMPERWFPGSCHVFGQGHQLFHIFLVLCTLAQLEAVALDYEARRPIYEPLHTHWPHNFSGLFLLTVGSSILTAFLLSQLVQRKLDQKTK
Source text: Plasmids and primers. Human PAQRs were cloned into various vectors by PCR from commercially/publically available cDNAs. […] The OST4 open reading frame in pJK90 was replaced with the PAQR6 and mPRα open reading frames by gap repair. Primers for all cloning reactions are listed herein. Proteins expressed in pYES260 have an N-terminal 6×-histidine tag followed by a TEV protease cleavage site. Proteins expressed in pGREG536 have an N-terminal 7×-HA tag. Proteins expressed in the pRS316 vector are untagged. The pYES260, pRS316 and pGREG536 vectors allow for galactose-inducible expression via the GAL1 promoter. […] A pRS316-based plasmid containing the STE2 gene under the control of the GAL1 promoter (Feng et al., 2000) was kindly provided by Dr. Nicholas G. Davis (Wayne State University).
Assays and growth conditions. Strains were maintained using standard protocol and grown in synthetic defined (SD) media with the appropriate amino acids to match the auxotrophies of the individual strains. […] In brief, overnights of cells grown in SD-glucose media were re-inoculated into iron-deficient LIM to induce the expression of FET3. […] All ligands were added to the growth medium upon re-inoculation into LIM. For experiments in which steroids were added as ligands, steroids were added from ethanol stocks and “untreated” controls are actually treated with an equal volume of ethanol to control for vehicle effects. […] All experiments were performed at least three times and a representative experiment is shown. EC50 values were obtained using the web-based BioDataFit software using sigmoidal curve-fitting. (web site changbioscience.com/stat/ec50.html)

[2] = target: T2, PAQR6 (Homo sapiens, UniProt Q6TCH4); assay: FET3-lacZ reporter repression in yeast expressing PAQR6; type: cell-based; details: PAQR6, Table 3
T2 construct: expressed in transfected cells; host or cells: Saccharomyces cerevisiae BY4742, GAL1-driven pYES260 plasmid
T2 sequence (Q6TCH4 1-344): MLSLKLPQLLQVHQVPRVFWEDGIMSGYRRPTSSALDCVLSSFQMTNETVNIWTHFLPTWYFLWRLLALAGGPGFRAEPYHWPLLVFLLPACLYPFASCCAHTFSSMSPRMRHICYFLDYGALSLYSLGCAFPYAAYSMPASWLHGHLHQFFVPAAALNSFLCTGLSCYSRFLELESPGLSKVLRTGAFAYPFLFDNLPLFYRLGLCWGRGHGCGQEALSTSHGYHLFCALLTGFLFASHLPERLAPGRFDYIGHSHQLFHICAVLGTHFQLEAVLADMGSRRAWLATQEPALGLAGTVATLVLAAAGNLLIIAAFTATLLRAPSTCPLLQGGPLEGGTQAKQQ
Source text: Plasmids and primers. Human PAQRs were cloned into various vectors by PCR from commercially/publically available cDNAs. PAQRs were cloned into the pYES260 (Melcher, 2000), pRS316 (Liu et al., 1992) or pGREG536 (Jansen et al., 2005) expression vectors using gap repair. The pJK90 plasmid containing a Dual Topology Reporter (DTR)-tagged OST4 gene driven by the constitutive TPI1 promoter was kindly provided by Dr. Gunnar von Heijne (Stockholm University) (Kim et al., 2003). The OST4 open reading frame in pJK90 was replaced with the PAQR6 and mPRα open reading frames by gap repair. Primers for all cloning reactions are listed herein. Proteins expressed in pYES260 have an N-terminal 6×-histidine tag followed by a TEV protease cleavage site. Proteins expressed in pGREG536 have an N-terminal 7×-HA tag. Proteins expressed in the pRS316 vector are untagged. The pYES260, pRS316 and pGREG536 vectors allow for galactose-inducible expression via the GAL1 promoter. […] The FET3-lacZ plasmid was previously described (Kupchak et al., 2007). […]
Assays and growth conditions. […] Cells were allowed to grow to mid-log phase at which time the activity of the FET3 gene was monitored using a FET3-lacZ promoter-reporter construct. lacZ activities are presented as a percentage of activity seen in untreated cells expressing the appropriate empty expression vector control. […]

[3] = target: mPRs; details: determined by Thomas et al. (2008); read-out: Kd for progesterone binding to mPRs; cited from earlier work

CC(=O)[C@H]1CC[C@H]2[C@@H]3CCC4=CC(=O)CC[C@]4(C)[C@H]3CC[C@]12C [Progesterone, progesterone]
pEC50 ([1]; EC50, mPRα column of Table 4, ligand alone): 8.66
pEC50 ([1]; EC50, mPRα, Table 3, iron deficient LIM, 0.05% galactose): 8.64 and 8.52 to 9.00
pEC50 [2]: 8.59
pKd [3]: ~8.30
